Key:
Format in all cases: biochemical
bi-Zn(II)-BcII = biological target: T1, bi-Zn(II)-BcII (Bacillus cereus, UniProt P04190); experiment: rapid-freeze-quench X-ray absorption spectroscopy; settings: 10 ms reaction
T1 construct: gene blm; expressed as N-terminal GST fusion, GST removed with thrombin; bi-Zn(II) form

bi-Zn(II)-NDM-1 [1] = biological target: T2, bi-Zn(II)-NDM-1 (Klebsiella pneumoniae, UniProt C7C422); experiment: stopped-flow absorption, single turnover; settings: 100 mM Hepes pH 7.5, 200 mM NaCl, 300 µM ZnSO4, 6 °C
T2 construct: gene blaNDM-1

mono-Zn(II)-Sfh-I = biological target: T3, mono-Zn(II)-Sfh-I (Serratia fonticola, UniProt Q9RMI1); experiment: stopped-flow absorption (pre-steady state); RFQ Zn K-edge XAS of ES complex; settings: 50 mM Hepes pH 7, 4 °C
T3 construct: gene sfhI; expressed from pET-26b; anion exchange and size exclusion purification; mono-Zn(II) form

bi-Zn(II)-NDM-1 [2] = biological target: T2, bi-Zn(II)-NDM-1; experiment: stopped-flow absorption; settings: 100 mM Hepes pH 7.5, 200 mM NaCl, 300 µM ZnSO4, 6 °C

T2 sequence (C7C422 27-270 limits assumed): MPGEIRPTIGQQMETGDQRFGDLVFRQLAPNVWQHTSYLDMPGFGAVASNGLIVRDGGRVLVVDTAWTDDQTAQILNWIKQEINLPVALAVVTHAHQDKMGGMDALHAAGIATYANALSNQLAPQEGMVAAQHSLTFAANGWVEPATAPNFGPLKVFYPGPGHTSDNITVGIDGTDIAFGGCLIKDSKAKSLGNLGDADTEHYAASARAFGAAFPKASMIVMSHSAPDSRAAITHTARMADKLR
T3 sequence (Q9RMI1 entry or part of it): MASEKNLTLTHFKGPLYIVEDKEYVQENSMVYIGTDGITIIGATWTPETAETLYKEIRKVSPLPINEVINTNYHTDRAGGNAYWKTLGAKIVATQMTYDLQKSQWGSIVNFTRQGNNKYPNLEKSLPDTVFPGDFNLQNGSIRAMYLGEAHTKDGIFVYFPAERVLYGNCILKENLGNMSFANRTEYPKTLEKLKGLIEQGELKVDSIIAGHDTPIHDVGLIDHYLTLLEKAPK
T1 sequence (P04190 31-257): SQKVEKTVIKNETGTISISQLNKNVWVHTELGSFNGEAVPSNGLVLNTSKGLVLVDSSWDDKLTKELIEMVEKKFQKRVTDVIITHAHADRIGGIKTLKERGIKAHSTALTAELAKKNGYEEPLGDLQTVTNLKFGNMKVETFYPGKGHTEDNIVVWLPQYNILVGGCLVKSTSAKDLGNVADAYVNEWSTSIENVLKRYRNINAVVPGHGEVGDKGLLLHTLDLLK

SMILES | rapid-freeze-quench X-ray absorption spectroscopy (bi-Zn(II)-BcII) | stopped-flow absorption, single turnover (bi-Zn(II)-NDM-1 [1]) | stopped-flow absorption (pre-steady state); RFQ Zn K-edge XAS of ES complex (mono-Zn(II)-Sfh-I) | stopped-flow absorption (bi-Zn(II)-NDM-1 [2])
C[C@@H](O)[C@H]1C(=O)N2C(C(=O)O)=C(SCCN=CN)C[C@H]12 [imipenem] | X-ray absorption spectroscopy to analyse hydrolysis of imipenem by the B1 enzyme bi-Zn(II)-BcII | Hydrolysis of imipenem by bi-Zn(II)-NDM-1 under single turnover conditions | imipenem hydrolysis by the mono-Zn(II) B2 lactamase Sfh-I | –
C[C@@H](O)[C@H]1C(=O)N2C(C(=O)O)=C(S[C@@H]3CN[C@H](C(=O)N(C)C)C3)[C@H](C)[C@H]12 [meropenem] | – | – | – | We also assayed hydrolysis of another carbapenem, meropenem, by bi-Zn(II)-NDM-1

From publication PMC5599593, “A general reaction mechanism for carbapenem hydrolysis by mononuclear and binuclear metallo-β-lactamases” (Nature Communications, 2017)
